Patent US6946465B2, “Immunosuppressive effects of pteridine derivatives” (4 AZA Bioscience NV, priority 1999, dated 2005)

Key:
Type in all cases: cell-based, human
[1] = tested on: peripheral blood mononuclear cells (PBMC) with allogeneic PBMC or RPMI1788 stimulator cells; test: Mixed lymphocyte reaction (MLR) test, [3H]-thymidine incorporation; settings: Table 1; 5 days incubation + 16 h thymidine
Source text: (§1) Various models may be used for testing an immunosuppressive effect. In vivo, for example, different transplantation models are available. They are strongly influenced by different immunogenicities, depending on the donor and recipient species used and depending on the nature of the transplanted organ. The survival time of transplanted organs can thus be used to measure the suppression of the immune response. In vitro, the most used models are lymphocyte activation tests. Usually activation is measured via lymphocyte proliferation. Inhibition of proliferation thus always means immunosuppression under the experimental conditions applied. There exist different stimuli for lymphocyte activation: • a) co-culture of lymphocytes of […] (mixed lymphocyte reaction, hereinafter referred as MLR) in a so-called mixed lymphocyte culture test: lymphocytes expressing different minor and major antigens of the HLA-DR type (=alloantigens) activate each other non-specifically. • b) a CD3 assay here there is an activation of the T-lymphocytes via an exogenously added antibody (OKT3).
(§2) All reagents were dissolved in 0.5 ml dimethylsulfoxide (hereinafter referred as DMSO) and further diluted in culture medium before use for the following in vitro experiments. The commercially available culture medium consisted of RPMI-1640+10% foetal calf serum (FCS).
Peripheral blood mononuclear cells (hereinafter referred as PBMC) were isolated from heparinized peripheral blood by density gradient centrifugation over Lymphoprep (Nycomed, Maorstua, Norway). Allogeneic PBMC or Eppstein-Barr Virus-transformed human B cells [commercially available under the trade name RPM11788 (ATCC name CCL156)] which strongly express B7-1 and B7-2 antigens were used as stimulator cells after irradiation with 30 Gy. MLR was performed in triplicate wells. After 5 days incubation at 37° C., 1 μCi [^3 H]-thymidine was added to each cup. After a further 16 hours incubation, cells were harvested and counted in a β-counter. Inhibition of proliferation by a compound (drug) described in some of the previous examples was counted using the formula: [formula] wherein cpm is the thymidine count per minute. Assays for CD3 and CD 28

[2] = tested on: highly purified T cells stimulated by anti-CD28 mAb; test: CD28 assay: T-cell proliferation stimulated by anti-CD28 mAb + PMA (BrdU); settings: Table 1; anti-CD28 mAb + PMA 0.5 ng/ml, 48 h
Source text: as §1, §2
(§3) T cells were purified by removing non-T cells. Briefly, monocytes were removed by cold agglutination. The resulting lymphoid cells were further purified by a cell enrichment immunocolumn [Cellect Human T commercially available from Biotex, Edmonton, Alberta, Canada)] by a process of negative selection.
(§4) Highly purified T cells (10^6/ml) were stimulated by immobilized anti-CD3 or anti-CD28 monoclonal antibodies (hereinafter referred as mAb) in the presence of PMA. Anti-CD3 mAb (available from CLB, Amsterdam, Netherlands) were fixed on the 96-microwell plates by incubating the wells with 50 μl of mAb solution (1/800 dilution in culture medium). For anti-CD28 mAb (available from CLB, Amsterdam, Netherlands) 50 μl (1/650 dilution in culture medium) was added directly to the wells. Further, a 20 μl phorbol myristate acetate (hereinafter referred as PMA (commercially available from Sigma, St. Louis, Mo., USA) solution (final concentration: 0.5 ng/ml) was added. Subsequently, 20 μl of a compound described in some of the previous examples were added by serial dilution in triplicate wells. Finally 100 μl of the T-cell suspension (10^6/ml) was added. After 48-hour incubation at 37° C. in 5% CO2 20 μl of a bromo-deuridine (hereinafter referred as BrdU) 100 μM solution (commercially available as Cell Proliferation Elisa from Boehringer-Mannheim Belgium) was added to each well. After a further overnight incubation, T-cell proliferation was measured using a colorimetric immunoassay for qualification of cell proliferation based on the incorporation of BrdU during DNA synthesis. Optical density (hereinafter referred as OD) was measured by a Behring EL311 plate reader at 450 nm (reference wavelength: 690 nm). Inhibition of proliferation by a compound (drug) described in some of the previous examples was counted using the formula: [formula]

[3] = tested on: highly purified T cells stimulated by immobilized anti-CD3 mAb; test: CD3 assay: T-cell proliferation stimulated by anti-CD3 mAb + PMA (BrdU); settings: Table 1; anti-CD3 mAb + PMA 0.5 ng/ml, 48 h; read-out: CD 3 IC50
Source text: as §1, §2, §3, §4

SMILES: Cn1c(=O)c2nc(C#N)c(NCc3ccccc3)nc2n(C)c1=O [Example 53, 6-cyano-7-benzylamino-1,3-dimethyl-lumazine]
- IC50 [1]: 140 µM
- IC50 [2]: 104 µM
- IC50 [3]: 140 µM

SMILES: Cn1c(=O)c2ncc(/C=C/c3cccnc3)nc2n(C)c1=O [Example 21, 1,3-dimethyl-7-[(E)-2-(pyrid-3-yl)vinyl]lumazine]
- IC50 [1]: 20 µM
- IC50 [2]: 60 µM
- IC50 [3]: 100 µM

SMILES: Cn1c(=O)c2ncc(/C=C/C=Cc3ccccc3)nc2n(C)c1=O [Example 23, 1,3-dimethyl-7-[(E)-4-(phenyl)butadienyl]-lumazine]
- IC50 [1]: 30 µM
- IC50 [2]: 80 µM
- IC50 [3]: 110 µM

SMILES: Cn1c(=O)c2nc(C=Cc3ccccc3)cnc2n(C)c1=O [Example 79, 6-[2-phenylethenyl]-1,3-dimethyllumazine]
- IC50 [1]: 17 µM
- IC50 [2]: > 200 µM
- IC50 [3]: 104 µM

SMILES: CCOC(=O)c1nc2c(=O)n(C)c(=O)n(C)c2nc1NNc1ccccc1 [Example 64, 6-ethylcarboxylate-7-phenylhydrazino-1,3-dimethyl-lumazine]
- IC50 [1]: 20 µM
- IC50 [2]: 12 µM
- IC50 [3]: 56 µM

SMILES: Cn1c(=O)c2nc(Cl)c(C#N)nc2n(C)c1=O [Example 51, 6-chloro-7-cyano-1,3-dimethyl-lumazine]
- IC50 [1]: 116 µM
- IC50 [2]: 56 µM
- IC50 [3]: 56 µM

SMILES: Cn1c(=O)c2nc(C#N)c(-n3ccnc3)nc2n(C)c1=O [Example 57, 6-cyano-7-imidazolyl-1,3-dimethyl-lumazine]
- IC50 [1]: 48 µM
- IC50 [2]: 15 µM
- IC50 [3]: 16.8 µM

SMILES: Cn1c(=O)c2nc(C=O)c(NC3CC3)nc2n(C)c1=O [Example 70, 6-formyl-7-cyclopropylamino-1,3-dimethyl-lumazine]
- IC50 [1]: 80 µM
- IC50 [2]: 116 µM
- IC50 [3]: 80 µM

SMILES: Cn1c(=O)c2nc(C(Cl)Cl)c(Cl)nc2n(C)c1=O [Example 50, 6-dichloromethyl-7-chloro-1,3-dimethyl-lumazine]
- IC50 [1]: 4 µM
- IC50 [2]: 9.5 µM
- IC50 [3]: 9.5 µM

SMILES: Cc1nc2c(nc1N1CCCC1)c(=O)n(C)c(=O)n2C [Example 74, 6-pyrrolidinyl-1,3,7-trimethyl-lumazine]
- IC50 [1]: 140 µM
- IC50 [2]: 128 µM
- IC50 [3]: 92 µM

SMILES: Cn1c(=O)c2ncc(/C=C/c3ccncc3)nc2n(C)c1=O [Example 22, 1,3-dimethyl-7-[(E)-2-(pyrid-4-yl)vinyl]lumazine]
- IC50 [1]: 75 µM
- IC50 [2]: 100 µM
- IC50 [3]: 125 µM
